Measured values published in patent US4732910A, “Enzyme Inhibiting substance” (Toyo Jozo Co, Ltd., priority 1985, dated 1988).
Values joined by “and” are separate entries in the source; they are usually repeats but may differ in a detail not shown here. Identical values can stand only once. Like-named read-outs stand apart in the source and are kept apart here.

Key:
Papain = target: T1, Papain (Carica papaya, UniProt P00784); assay: Papain inhibitory activity (casein hydrolysis); format: biochemical
T1 construct: purchased Boehringer Mannheim AG
T1 sequence (P00784 134-345): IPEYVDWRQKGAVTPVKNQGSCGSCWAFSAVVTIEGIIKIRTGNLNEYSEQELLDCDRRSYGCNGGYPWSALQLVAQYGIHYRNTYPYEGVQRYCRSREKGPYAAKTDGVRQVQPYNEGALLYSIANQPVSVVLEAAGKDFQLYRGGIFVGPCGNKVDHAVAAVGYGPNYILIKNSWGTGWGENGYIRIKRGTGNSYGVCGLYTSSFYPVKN
Procedure: (§1) The 0.2 ml of a solution of papain (300 μg/ml, Boeringer Mannheim AG), 0.25 ml of 40 mM cysteine solution dissolved in 5 mM EDTA solution adjusted pH to 6.8 with sodium hydroxide and 0.55 ml of the 50 mM phosphate buffer (pH 6.8) with or without inhibitor were mixed and incubated at 40° C. for 10 min., followed by adding 4 ml of 1.5% casein solution dissolved in a 50 mM phosphate buffer (pH 6.8) to carry out a reaction at 40° C. for 15 min. Then, 2 ml of 1.1M trichloroacetic acid is added to terminate the reaction. After being left to stand at room temperature for one hour, the reaction mixture is centrifuged at 3500 rpm for 10 minutes and absorbance (S) of the trichloroacetic acid soluble fraction at 280 mμ is measured. Similarly, absorbance (B) at 280 mμ is measured when no inhibitors are added. The percent inhibition was calculated by the following formula: […]
(§2) The amount of inhibitor for 50% inhibition was expressed as IC50.

Pepsin = target: T2, Pepsin (Sus scrofa, UniProt P00791); assay: Pepsin inhibitory activity (casein hydrolysis); format: biochemical
T2 construct: purchased PL Biochemical Co
Excerpt: (§3) The enzyme reactions were all measured according to the prescribed methods.
(§4) (α-chymotrypsin and pepsin used are those manufactured by PL Biochemical Co., and trypsin is that manufactured by Wako Junyaku Co.)

Ficin = Ficin inhibitory activity (casein hydrolysis); format: biochemical; details: enzyme 60 μg protein; substrate casein
Procedure: as §1, §2
(§5) Inhibitory activities against ficin (protein amount: 60 μg, manufactured by Boehringer Mannheim AG) and bromelain (protein content: 100 μg, manufactured by Boehringer Mannheim AG) are also measured by the similar method.

α-Chymotrypsin = target: T3, α-Chymotrypsin (Bos taurus, UniProt P00766); assay: α-Chymotrypsin inhibitory activity (casein hydrolysis); format: biochemical
T3 construct: purchased PL Biochemical Co
Excerpt: as §3, §4

Stability = details: stable at a pH of
Bromelain = target: T4, Bromelain (Ananas comosus, UniProt P14518); assay: Bromelain inhibitory activity (casein hydrolysis); format: biochemical
T4 construct: purchased Boehringer Mannheim AG
T4 sequence (P14518 1-212): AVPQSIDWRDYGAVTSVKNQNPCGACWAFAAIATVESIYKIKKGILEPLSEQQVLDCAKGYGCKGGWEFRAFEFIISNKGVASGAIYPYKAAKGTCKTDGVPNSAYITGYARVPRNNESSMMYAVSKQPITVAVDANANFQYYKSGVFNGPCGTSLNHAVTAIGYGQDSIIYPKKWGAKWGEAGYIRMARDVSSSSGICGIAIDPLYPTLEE
Procedure: as §1, §2, §5

mice = assay: Acute toxicity; format: in vivo; details: ip, 400 mg/Kg
Solubility = format: physicochemical
Excerpt: Insoluble in and pyridine.

Trypsin = Trypsin inhibitory activity (casein hydrolysis); format: biochemical; details: enzyme 1000 μg protein; substrate casein
Excerpt: as §3, §4

[1] = test system: production of IgG antibody; assay: Activity on the production of IgG antibody in mice (passive hemagglutination test); format: in vivo, BDF1 strain male mice; details: for IgG antibody titers, individual mice: 200 mg/Kg ip 2 hours before immunization with egg albumin + Freund complete adjuvant, blood after 2 weeks, passive hemagglutination; for Effect on production of IgG antibody (in words): mice, 200 mg/Kg ip
Procedure: Activity on the production of IgG antibody was examined by the following method.
Estatin A or Estatin B were administered ip to BDF1 strain male mice weighing 18-22 g (one group 5 mice) at a dose of 200 mg/Kg. Control group (10 mice) received only physiological saline.
After 2 hours from the administration each mouse was immunized by intradermal injection with 0.2 mg/0.1 ml of egg albumin together with equal volume of Freund complete adjuvant into the 2 separate sites of the back of the mice. After 2 weeks blood was collected and antibody titers were determined by passive hemagglutination test using glutalaldehyde as coupling reajent. The results are shown below. ______________________________________ Test drugs IgG antibody titers ______________________________________ Estatin A 12800, 6450, 25600 12800, 12800 Estatin B 6400, 25600, 12800 25000, 12800 Control 12800, 25600, 25600, 12800, 6450 12800, 12800, 12800, 12800, 12800 ______________________________________

[2] = test system: production of IgE antibody; assay: Activity on the production of IgE antibody in mice (PCA reaction); format: in vivo, BDF1 strain male mice; details: for IgE antibody titers (PCA antibody titers), individual mice: 200 mg/Kg ip 2 hours before immunization with egg albumin + aluminum hydroxide, blood after 14 days, reciprocal of maximum dilution with positive blueing in rats; for Effect on production of IgE antibody (in words): mice, 200 mg/Kg ip
Procedure: Activity on the production of IgE antibody was examined by the following method.
Estatin A or Estatin B dissolved in physiological saline were administered ip to BDF1 strain male mice weighing 18-22 g (one group 5 mice) at a dose of 200 mg/Kg. Control group (10 mice) received only physiological saline. After 2 hours from the administration, 4 mg of aluminum hydroxide together with 10 μg of egg albumin was administered ip to immunize them. After 14 days from the immunization, blood was collected and IgE antibody titer was assayed by PCA reaction (See "International Archives of Allergy and Applied Immunology" Vol. 48, Page 16, 1975.).
That is, serum samples were serially diluted and injected intradermally into the back of Wistar strain male rats weighing 200-250 g. After 48 hours, 1 ml of 1% Evans blue in physiological saline containing 2 mg of egg albumin was administered iv and rats were killed 30 min. later, and blueing of saline were observed. […] The results are shown below. ______________________________________ PCA Antibody TITERS Test drugs IgE antibody titers ______________________________________ Estatin A <100 <100 <100 <100 <100 Estatin B <100 <100 <100 <100 100 Control 400 800 800 800 800 800 1600 1600 1600 3200 ______________________________________

T2 sequence (P00791 60-385): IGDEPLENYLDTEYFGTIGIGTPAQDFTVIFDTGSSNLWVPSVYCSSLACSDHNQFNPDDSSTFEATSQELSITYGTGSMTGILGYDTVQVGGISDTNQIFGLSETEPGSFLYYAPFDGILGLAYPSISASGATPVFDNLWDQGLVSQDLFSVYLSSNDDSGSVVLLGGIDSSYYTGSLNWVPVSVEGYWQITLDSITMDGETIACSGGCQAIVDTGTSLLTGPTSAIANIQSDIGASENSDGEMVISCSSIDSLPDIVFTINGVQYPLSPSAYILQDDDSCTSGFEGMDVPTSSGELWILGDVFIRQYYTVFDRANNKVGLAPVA

Structure (SMILES)	IC50 (Papain) [nM]	IC50 (Pepsin; enzyme 100 μg protein, substrate casein, read-out: IC50 concentration, Pepsin) [nM]	IC50 concentration, Ficin (Ficin) [µg/mL]	IC50 (α-Chymotrypsin; enzyme 200 μg protein, substrate casein, read-out: IC50 concentration, α-Chymotrypsin) [nM]	Stability: pH at which stable (Stability)	IC50 (Bromelain; enzyme 100 μg protein, substrate casein, read-out: IC50 concentration, Bromelain (converted)) [nM]	Acute toxicity (mice)	Solubility in benzene, chloroform, ethyl acetate and petroleum ether (Solubility)	Solubility in water, acetic acid, dimethyl sulfoxide and pyridine (Solubility)	IC50 concentration, Trypsin (Trypsin) [µg/mL]	IgG antibody titers, individual mice [1]	Effect on production of IgG antibody (in words) [1]	IgE antibody titers (PCA antibody titers), individual mice [2]	Effect on production of IgE antibody (in words) [2]	IC50 (Pepsin) [nM]	IC50 (α-Chymotrypsin) [nM]	IC50 (Bromelain) [nM]	IC50 (Papain; enzyme 60 μg protein, substrate casein, read-out: IC50 concentration, Papain (converted)) [nM]
N=C(N)NCCCCNC(=O)[C@H](Cc1ccccc1)NC(=O)[C@H]1O[C@@H]1C(=O)O [Estatin A, N-[N-(L-3-trans-carboxyoxiran-2-carbonyl)-L-phenylalanyl]agmatine]	66.4	> 128000	0.039	> 128000	2-9	370	no toxic effect	Insoluble	Soluble	> 50	12800 (3×) and 6450 and 25600	do not inhibit the production of IgG antibody	< 100	inhibit the production of IgE antibody				
N=C(N)NCCCCNC(=O)[C@H](Cc1ccc(O)cc1)NC(=O)[C@H]1O[C@@H]1C(=O)O [Estatin B, N-[N-(L-3-trans-carboxyoxiran-2-carbonyl)-L-tyrosyl]agmatine]	66.3		0.041				no toxic effect	Insoluble	Soluble	> 50	6400 and 25600 and 12800 (2×) and 25000	do not inhibit the production of IgG antibody	< 100 (4×) and 100	inhibit the production of IgE antibody	> 123000	> 123000	356	
N=C(N)NCCCCNC(=O)[C@H](Cc1ccccc1)NC(=O)C1OC1C(=O)O (mixture of isomers) [N-[N-(D- and L-3-trans-carboxyoxiran-2-carbonyl-L-phenylalanyl]agmatine]																		74.1
